melting point	SMILES
110 to 113 °C	COc1ccc(N2CCN(c3c(C)c(C)c4c(c3C)C(c3ccoc3)C(C)(C)O4)CC2)cc1 (stereo not given)
115 to 117 °C	O=C(NCc1ccccc1)NC(Cc1ccccc1)C(=O)O (stereo not given)
290 to 291 °C	O=C1c2ccc(N3CCCC3)c3cc([N+](=O)[O-])cc(c23)C(=O)N1O
160 to 161 °C	CC1OC(=O)Nc2ccc(-c3cccc(F)c3)cc21 (stereo not given)
93 to 94 °C	CCc1cccc(CC(=O)O)c1OCCCc1cn(-c2ccc(C(F)(F)F)nn2)nc1C(CC)CC
82 to 86 °C	C=Cc1ccnc(-c2cc(C)ccn2)c1
187 to 188 °C	CCCc1ccnc2c(=O)[nH]c(-c3cc(S(=O)(=O)N4CCN(CCO)CC4)ccc3OCC)nc12
115 to 116 °C	CCCOc1ccccc1-c1nc2c(CCC)nn(C)c2c(=O)[nH]1
246 °C	Cc1cc(-c2ncn3c(C(F)(F)F)cc(-c4ccc(Cl)c(C)c4)nc23)ccn1
114 to 115 °C	Cc1c(-c2ccccc2)oc2c(C(=O)OCCCBr)cccc2c1=O
218 to 219 °C	CC(=O)NCC(=O)NS(=O)(=O)c1ccc(-c2c(-c3ccccc3)noc2C)cc1
172 to 173 °C	CC#CCOc1cc(/C=C/C(=O)Nc2cc(Cl)ccc2C(=O)NC)ccc1OC
> 260 °C	CNS(=O)(=O)c1ccc(NN=C2C(=O)Nc3ccc4ncsc4c32)cc1
106 to 109 °C	CCCCCCCCCCOc1cc(OCCCOc2ccc(O)cc2)cc(C(=O)O)c1
208 °C	CC(C)C(=O)NCCCC(=O)OC1c2ccccc2C(=O)N1c1ccc2ccc(Cl)nc2n1 (stereo not given)
348 to 349 °C	O=C(O)c1ccc(C=Cc2ccc(-c3cc4ccccc4o3)cc2)cc1
114 °C	COc1ccccc1Oc1cccc2c1NC(=O)C2SC (stereo not given)
177 to 183 °C	CC(C)(C)c1cc(N=C2CCc3cc4c(nc32)C(=Nc2cc(C(C)(C)C)cc(C(C)(C)C)c2)CC4)cc(C(C)(C)C)c1
148 to 151 °C	CCCCOc1c(\C(C)=C/C=C/C(C)=C/C(=O)O)cc(C(C)(C)C)cc1C(C)(C)C
100 to 104 °C	CCCc1nn(C)c2c(=O)n(CCOc3ccc(NC(C)=O)cc3)c(CC)nc12
97 to 98 °C	O=C1CCCCC1C(=S)Nc1ccc(Cl)cc1F (stereo not given)
108 to 110 °C	Cc1ccc(C(=O)C=CN(C)C)cc1C
224 to 226 °C	CCN(CC)C(=O)c1c(-c2ccccc2)[nH]c2ccccc12
144 °C	CN(C)Cc1ccc(/C=C/C(=O)O)cn1

melting point	SMILES
139 to 141 °C	CCc1cc(C)cc(CC)c1C1C(=O)CC2(CCOCC2)CC1=O
148 to 150 °C	CCOC(=O)C(C)(NC(=O)Cc1ccc2ccccc2c1)C(=O)OCC
210 to 212 °C	CCOC(=O)N1CC2(C1)N=C(N)c1c(F)cccc1N2
189 to 191 °C	CCCNC(=O)C(C)=Cc1ccc2c(c1)c(Cc1ccc(C(=O)NS(=O)(=O)c3ccccc3C)cc1OC)cn2C
163 to 167 °C	COCCNc1ccc2ncnc(Nc3cccc(C)c3)c2c1
155 to 157 °C	CS(=O)(=O)c1ccc(N)c(C#N)c1
169 to 170 °C	CC(=O)c1c(-c2ccc(F)cc2)nn(CC2CC2)c(=O)c1Nc1cccc2ncccc12
180 to 181 °C	CC(CO)CCCC(C)C1CC=C2C3=C(CCC21C)C1(C)CCC(O)C(C)(C)C1CC3 (stereo not given)
222 to 225 °C	CCc1nc2c(N)nc3ccccc3c2n1CCS(C)(=O)=O
93 to 96 °C	[N-]=[N+]=CC(=O)OC/C=C/c1ccc(NC(=O)OCc2ccccc2)cc1F
278 to 279 °C	CCc1nc2c([nH]1)C(=O)N1CCN=C1N2Cc1ccc(Cl)cc1
122 to 126 °C	O=C1CC(CO)C(c2c(Cl)cccc2Cl)N1Cc1ccccc1 (stereo not given)
98.8 to 101 °C	CCOC(=O)C[C@H](O)COC(c1ccccc1)(c1ccccc1)c1ccccc1
84 to 86 °C	COCCCN(C(=O)N(CCCl)N=O)C1(O)C(OCC(C)C)OCC(O)C1O (stereo not given)
195 to 197 °C	CCOCc1nc2c(N)nc3ccccc3c2n1CC1(O)CCN(C(=O)OC(C)(C)C)CC1
113 to 115 °C	CCN(CC)Cc1ccc(N=C2NCCN2)c(Cl)c1
172 to 173 °C	O=C(O)c1cc([N+](=O)[O-])cc(Br)n1
121 to 123 °C	O=C1OC(CCl)CN1c1ccc(S(=O)(=O)C(F)(F)F)cc1 (stereo not given)
135 to 140 °C	CCOC(=O)c1cc(C(=O)c2ccccc2Cl)c(-n2c(C)nnc2CNC(=O)c2cc3ccccc3[nH]2)s1
137 to 139 °C	Cc1cc(C)c2ncc(Br)n2n1
217 to 222 °C	CN1CCN(c2ccc(Nc3ncc4cc5ccccc5n4n3)cc2)CC1
222 to 224 °C	Cc1cccc(-c2c(Cl)ccc3c2C=C(C(=O)O)C(C(F)(F)F)O3)c1 (stereo not given)
235 to 236 °C	NC(=O)c1cc(O)c(O)c([N+](=O)[O-])c1
253 to 254 °C	CCCCC(CC)c1nc2cc(O)c(C#N)c(C)n2n1 (stereo not given)

melting point	SMILES
139 to 140 °C	CCCCN1C(=O)c2cnc(-c3ccccc3)nc2N(C(=O)CCl)c2ccccc21
158 °C	COc1ccc(-c2[nH]c3ccc(OCc4ccccc4)cc3c2C)cc1
118 to 120 °C	Cc1cc(C)c2nc(C)n(Cc3ccc(NCC4CCN(C5CCN(C)CC5)CC4)cc3)c2n1
153 to 156 °C	O=c1cc[nH]c2c([N+](=O)[O-])cc(C(F)(F)F)cc12
212 to 214 °C	CCOC(=O)c1oc2cc(O)c(O)cc2c1C
136 to 138 °C	CC(=O)OC1(C(=O)COC(=O)c2ccccc2)CCC2C3CC(C)C4=CC(=O)C=CC4(C)C3C(O)CC21C (stereo not given)
142 to 146 °C	N=C(N)Nc1nc(CSCCNC=NS(=O)(=O)c2ccc(Br)cc2)cs1
179 to 181 °C	NS(=O)(=O)c1ccc(-c2cccn2-c2ccc(Cl)cc2)cc1
142 to 144 °C	CCC(=O)Nc1ccc(Cl)c(-n2nc(CC)n(Cc3ccc(-c4ccccc4S(=O)(=O)NC(=O)OC(C)(C)C)cc3F)c2=O)c1
195 to 196 °C	CCOC(=O)CCCCC1CC(n2c3ccccc3c3ccccc32)c2ccccc2N1C(=O)c1ccc(OC)c(OC)c1 (stereo not given)
196 to 197 °C	CCc1c(C)sc(NC(=O)OC(C)(C)C)c1C(=O)O
135 to 136 °C	N#CN1CCC(c2nn(-c3ccc(C(F)(F)F)cc3)c3ccccc23)CC1
159 to 161 °C	Cc1nnc2ccc(-c3cccc(N(C)C(=O)N(C)C)c3)nn12
160 °C	CS(=O)(=O)OC(c1ccc(C(O)(C(F)(F)F)C(F)(F)F)cc1)(C(F)(F)F)C(F)(F)F
> 300 °C	O=C(Nc1cccc2c1C(=O)c1c-2n[nH]c1-c1ccc(C(=O)N2CCC[C@H]2CNc2ccccc2)s1)NN1CCOCC1
100 to 101 °C	CC(C)c1ccc(O[C@@H](Cc2ccc(OCCNC(=O)c3ccc(-c4ccccn4)cc3)cc2)C(=O)O)cc1
122 to 123 °C	Cc1nc(Sc2cc(C(F)(F)F)ccn2)sc1CC(=O)O
70.5 to 71.5 °C	CCOC(=O)c1csnc1-c1ccc(Cl)cc1
104 to 105 °C	COc1cccc(CC(NC(=O)CCl)c2ccccc2)c1 (stereo not given)
100 °C	NC[C@H]1CCCN1C(c1ccccc1)(c1ccccc1)c1ccccc1
153 to 162 °C	CC(=O)N1CCN=C1Nc1cc(C)nn1-c1ccccc1
136 to 137 °C	CCCc1[nH]c2cc(C(=O)OC)ccc2c1C(=O)C1CCCCC1
203 to 205 °C	CNC(=O)CC1=CSC2=C(C(=O)OC(C)C)C(C)CN12 (stereo not given)
154 °C	COc1ccc(CNC(=O)n2cc(F)c(=O)[nH]c2=O)c(OC)c1

melting point	SMILES
260 to 264 °C	O=C(O)c1coc2ccc(Br)cc2c1=O
51 to 53 °C	O=C(Cl)Oc1ccc(Cl)c(Cl)c1
290 to 293 °C	O=C1NC(=O)C2(N1)C1CC3CC(C1)CC2C3 (stereo not given)
142 to 143 °C	COCc1cc(-n2nc(C(F)(F)F)cc2-c2ccc(-c3ccco3)cc2)ccc1S(C)(=O)=O
143 to 144 °C	COc1ccc(-c2cnc3ccc(-c4nnc(SCc5cccc(C#N)c5)o4)cn23)cc1
185 °C	Cc1cn(C)c2c1N(C(=O)CCN1CCCC1)c1ccccc1NC2=O
74 to 75 °C	CCOC1(OCC)CCC(C#N)(CC#N)CC1
144 to 146 °C	COC(=O)c1nn(Cc2ccc(Cl)c(Cl)c2)c(=O)c2cc(OC)ccc12
160 to 162 °C	CN(C)CCCn1cc(Br)c2c3c(c(-c4ccccc4Cl)cc21)C(=O)NC3=O
86 to 88 °C	CC(C)(C)OC(=O)CC1(C(=O)OCc2ccccc2)C(=O)N(Cc2ccc(Cl)c(Cl)c2)C(=O)c2cccn21 (stereo not given)
125 to 126 °C	COc1ccc(-c2cc(C(F)(F)F)n(C)c2-c2ccc(OC)cc2)cc1
86 to 87 °C	O=[N+]([O-])c1ccc(OCCOc2ccccc2)cc1
140 to 142 °C	Nc1cnn(CCO)c1NCCO
149 to 152 °C	O=C(CCCN1CCC2(CC(O)c3cc(Cl)cc(Cl)c32)C1)c1ccc(F)cc1 (stereo not given)
110 °C	CNC(=O)C(c1ccccc1F)N(C(=O)CNC(=O)Nc1cccc(C)c1)c1cccc(OC)c1 (stereo not given)
99 to 102 °C	C[C@H](NC(=O)OC(C)(C)C)C(=O)C=[N+]=[N-]
149 to 151 °C	CC(C)c1cccc(C(C)C)c1NC(=O)CNC(c1ccccc1)c1cccc2ccccc12 (stereo not given)
159 to 160 °C	O=C1C2CC3CC1CC(OCc1ccc(-c4nc5ccccc5o4)cc1)(C3)C2
76 to 79 °C	O=C(c1ccccc1)N1CCC(CSc2ccccc2)CC1
120 to 122 °C	COCc1nc2c(OCc3ccccc3)cccc2n1C
146 to 147 °C	COc1ccc(C(O)(c2ccc(OC)cc2)[C@@H](N)C2CCCCC2)cc1
65 to 66 °C	CCOC(=O)C=CC(C)=CC=C(C)C=CC1=C(C)CCCC1(C)C
110 to 113 °C	CCOC(=O)C(=O)Nc1ccncc1
119 °C	O=c1ssc(-c2cnccn2)c1CBr

SMILES	melting point
Nc1ccc(CCN2CCN(c3ccc(N)cc3Cl)CC2)cc1	109 to 112 °C
ClC1=Nc2ccccc2Sc2ccccc21	93 to 97 °C
CC(C)(C)OC(=O)N1CCC(C#N)(c2ccc(Cl)c(Cl)c2)CC1	142 to 145 °C
O=C(O)CC1(CNC(=O)c2ccc(CO[N+](=O)[O-])cc2)CCCCC1	127 to 128 °C

Source: a melting point compilation (Tetko et al.; mined from patent text by program, amines drawn as free bases though some values may be those of a salt)
